From paper PMC4389443 (Respiratory Research, 2015)
Where two headings read alike, the source gives them in different places.

What was measured:
[1] = tested on: over 100 different macromolecular targets; test: Off-target activity, Ricerca lead seeker selectivity panel; settings: other amine oxidases or over 100 different macromolecular targets
BALB/c mice = test: CXCL1/KC induced cremaster inflammation, intravital microscopy; type: in vivo, mouse; settings: 6 mg.kg^−1 oral, 1 hour prior to rCXCL1
Experimental: BALB/c mice were anesthetized and 500 ng of murine rCXCL1 in 0.2 ml of saline was administered locally by s.c. injection beneath the right scrotal skin using a 30-G needle, 2 hours before exteriorization. The left cremaster was then prepared for intravital microscopy, as previously described. Briefly, an incision was made in the scrotal skin to expose the left cremaster muscle, which was then carefully removed from the associated fascia. A lengthwise incision was made on the ventral surface of the cremaster muscle using a cautery. The testicle and the epididymis were separated from the underlying muscle and were moved into the abdominal cavity. The muscle was then spread out over an optically clear viewing pedestal and was secured along the edges with a 4–0 suture. […] A video camera (CDD; Sony) was used to project the images onto a monitor, and the images were recorded for playback analysis using a conventional DVD. […] The number of rolling and adherent leukocytes was determined offline during video playback analysis. […] The flux of rolling cells was measured as the number of rolling cells passing by a given point in the venule per minute. A leukocyte was considered to be adherent if it remained stationary for at least 30 s, and total leukocyte adhesion was quantified as the number of adherent cells within a 100 μm length of venule.

Swiss mice = test: LPS airway inflammation, 24 hour time point; type: in vivo, mouse; settings: 24 hours after LPS
Experimental: Given the short half-life of PXS-4728, a second dose was administered to ensure that newly synthesized SSAO would also be blocked.

HepG2 cells = test: Phospholipidosis in HepG2 cells; type: cell-based; settings: highest concentration tested 100 μM
Water solubility = type: physicochemical
[2] = molecular target: T1, Recombinant lysyl oxidase like 2 (Homo sapiens, UniProt Q9Y4K0); test: LOXL2 fluorometric enzyme activity assay; type: biochemical
T1 construct: purchased R&D systems
T1 sequence (Q9Y4K0 26-774): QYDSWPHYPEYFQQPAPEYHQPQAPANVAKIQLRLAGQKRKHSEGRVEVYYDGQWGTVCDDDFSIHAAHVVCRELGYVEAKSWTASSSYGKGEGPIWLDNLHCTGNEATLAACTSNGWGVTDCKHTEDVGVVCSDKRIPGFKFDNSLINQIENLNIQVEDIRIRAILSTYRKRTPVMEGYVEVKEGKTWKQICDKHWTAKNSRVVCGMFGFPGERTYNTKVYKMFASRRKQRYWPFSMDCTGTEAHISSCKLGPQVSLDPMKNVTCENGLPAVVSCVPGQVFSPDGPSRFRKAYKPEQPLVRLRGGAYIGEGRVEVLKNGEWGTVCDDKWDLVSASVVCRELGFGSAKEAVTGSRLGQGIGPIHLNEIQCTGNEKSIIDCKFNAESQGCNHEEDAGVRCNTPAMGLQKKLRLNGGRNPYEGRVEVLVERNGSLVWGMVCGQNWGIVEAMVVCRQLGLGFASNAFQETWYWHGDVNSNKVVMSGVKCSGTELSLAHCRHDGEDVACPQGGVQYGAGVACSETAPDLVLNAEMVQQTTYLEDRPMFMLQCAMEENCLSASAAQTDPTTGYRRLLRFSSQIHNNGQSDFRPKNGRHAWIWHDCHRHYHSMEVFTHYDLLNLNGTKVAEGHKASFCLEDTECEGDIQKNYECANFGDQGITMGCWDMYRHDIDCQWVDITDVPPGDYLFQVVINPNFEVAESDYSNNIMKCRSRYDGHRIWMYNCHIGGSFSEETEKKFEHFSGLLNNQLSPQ
Experimental: rhLOXL2 (lysyl oxidase like 2) was purchased from R&D systems and assay was performed in 1.2 M urea, 50 mM sodium borate buffer, pH 8.2. The substrate used was 10 mM putrescine and 100 μM of β-aminopropionitrile (βAPN, Sigma-Aldrich) was added to the low controls.

[3] = molecular target: T2, VAP-1/SSAO in gonadal fat tissue homogenate (Canis lupus familiaris, UniProt A0A8I3MYY3); test: SSAO activity, gonadal fat tissue homogenate; type: biochemical; settings: dog
T2 sequence (A0A8I3MYY3 1-763): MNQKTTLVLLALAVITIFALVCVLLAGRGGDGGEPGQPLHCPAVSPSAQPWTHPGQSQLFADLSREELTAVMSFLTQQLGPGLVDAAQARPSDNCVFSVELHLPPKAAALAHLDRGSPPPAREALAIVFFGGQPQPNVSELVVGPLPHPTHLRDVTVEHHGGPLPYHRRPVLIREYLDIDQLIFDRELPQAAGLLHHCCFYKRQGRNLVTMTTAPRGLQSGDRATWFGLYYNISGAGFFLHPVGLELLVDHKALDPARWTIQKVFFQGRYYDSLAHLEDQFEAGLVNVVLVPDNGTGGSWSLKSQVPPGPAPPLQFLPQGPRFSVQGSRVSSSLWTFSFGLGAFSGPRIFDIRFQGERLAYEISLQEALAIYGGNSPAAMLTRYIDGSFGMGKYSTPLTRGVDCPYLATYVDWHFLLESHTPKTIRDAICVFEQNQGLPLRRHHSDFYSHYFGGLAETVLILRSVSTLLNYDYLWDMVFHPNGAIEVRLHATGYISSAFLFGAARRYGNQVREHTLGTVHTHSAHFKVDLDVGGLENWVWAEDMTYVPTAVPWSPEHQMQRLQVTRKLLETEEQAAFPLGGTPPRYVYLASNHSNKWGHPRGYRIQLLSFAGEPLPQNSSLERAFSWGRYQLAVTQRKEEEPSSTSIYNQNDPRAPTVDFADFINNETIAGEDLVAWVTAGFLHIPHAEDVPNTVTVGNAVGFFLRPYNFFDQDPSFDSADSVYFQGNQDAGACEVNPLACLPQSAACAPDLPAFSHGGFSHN

[4] = 4 mg/kg pre-treatment, 6 mg/kg at 6 hours

Compound: CC(C)(C)NC(=O)c1ccc(OC/C(=C/F)CN)cc1 [PXS-4728A]
- Off-target activity [1]: does not have any significant off-target activity
- CXCL1/KC increased number of adhering leukocytes (BALB/c mice): abolished
- CXCL1/KC increased number of rolling leukocytes (BALB/c mice): abolished
- Circulating neutrophils (Swiss mice): had no effect
- Total cells in blood (Swiss mice): had no effect
- Influx of neutrophils in BALF (Swiss mice; [4]): reduced
- Influx of total cells in BALF (Swiss mice; [4]): reduced
- Phospholipidosis (HepG2 cells): does not induce
- solubility (Water solubility; Figure 1, read-out: Solubility (H2O)): > 10000 µg/mL
- solubility (Water solubility; pH 7.4, aqueous buffer, read-out: Water solubility): > 10000 µg/mL
- IC50 [2]: 10.4 µM
- IC50 [3]: < 0.01 µM
